The subject of one data set is DU145. The data set can be described thus: PARP cleavage western blot, tumor cells. Format: cell-based, human. The following applies: tumor cells (DU145), 24, 48 and 72 h. Here is the method:
(§1) FIG. 2 Preferential tumor cell killing activity of 6aa. A. Cell Cycle analyses. Normal (HUVEC) and tumor cells (DU145) were treated with 20 nM concentration of 6aa and incubated in medium containing 10% fetal bovine serum. At 24 hr intervals, the cells were fixed, stained with propidium iodide and analyzed for their DNA content by flow Cytometry. B. Induction of apoptosis in normal (HUVEC) and tumor cells (DU145) was assessed by western blot analysis of cell lysates treated with 6aa for 24, 48 and 72 h. The Western blots were probed with anti-PARP antibodies to assess the cleavage of the protein.
[…] were plated at a density of 3.0×10^6 cells per 150 mm^2 plate and treated 24 h later with either DMSO or 6aa. The cells were collected at the indicated time points and cell pellets were frozen. The frozen cell pellets were lysed in 1% NP40/PBS lysis buffer containing protease inhibitors. Equal amounts of total cellular protein was then resolved on a 10%-SDS-polyacrylamide gel. The gels were transferred onto nitrocellulose paper (S/S), hybridized with anti-PARP antibodies (BD) and developed using ECL (Perkin-Elmer, MA) solution.
On the technique in general: Immunoblotting shows a protein as a band on a membrane.

In another data set the test system is bone marrow cells. Kind of data set: Bone marrow harvest and colony formation assay. Format: in vivo, CD-1 mice. The note with it: 100 mg/kg intravenously, 12, 24 and 48 h after injection. Here is the method: FIG. 4 Bone marrow toxicity profile of 6ab. To assess the toxicity of 6ab, the phosphate salt of the drug was injected into mice (100 mg/Kg) and bone marrow harvested from femur and tibia after 12, 24 and […] following the injection of the drug. The bone marrow cells were cultured in methylcellulose medium supplemented with a mixture of stem cell factor, GM-CSF, IL-3 and erythropoietin for one week and colony forming units were determined.
Bone marrow was harvested from femur and tibia of CD-1 mice injected with 200 μL of PBS or 6ab [10 mg/mL:100 mg/kg dose] at 12, 24, or 48 h before the sacrifice. The bone marrow cells were cultured in Methylcellulose medium supplemented with 50 ng/mL rmStem Cell Factor, 10 ng/mL rmIL-3, 10 ng/mL rh IL-6, 200 μg/mL human Transfeffin, and 3 units/mL rhErythropoietin (Stem Cell Technologies, Vancouver, BC, Canada). Cultures were seeded in duplicates using 35 mm plastic petri dishes and colony forming units were determined after one week.

The subject of data set [1] is DU145 (prostate cancer) cells. The data set can be described thus: Cell cycle analysis by flow cytometry, tumor cells. It counts as cell-based, human. The following applies: DU145, 20 nM, 24 hr intervals. Here is the method: as §1
Human prostate tumor cells, DU145 cells, and normal diploid human lung fibroblasts, HFL-1 cells, were grown in DMEM (Cellgro) supplemented with 10% fetal bovine serum and 1 unit/mL penicillin-streptomycin. The cells were plated onto 100 mm^2 dishes at a cell density of 1.0×10^6 cells/dish, and 24 h later, they were treated with 2.5 μM of the compound. The cells were harvested 24, 48 and 72 h after treatment. The cells were removed from the plate by trypsin digestion and combined with the non-attached cells found in the medium. The cell pellets were washed in phosphate buffered saline (PBS), and fixed in ice cold 70% ethanol for at least 24 h. […] The stained cells were then analyzed on a Becton-Dickinson (BD) (FACScan) flow cytometer and the data analyzed by cell cycle analysis software (Modfit, BD).

For a further data set, the system named is MIA-PaCa-2 cells. The data set can be described thus: Soft agar colony formation, MIA-PaCa-2. Format: cell-based, human. The note with it: MIA-PaCa-2, dose dependent, three weeks. Here is the method: FIG. 1 Anti-tumor effects of (E)-2,4,6-Trimethoxystyryl-3-Hydroxy-4-Methoxybenzyl Sulfone (6aa). A. 6aa inhibits the growth of parental (MES-SA) and Paclitaxel resistant (MES-SA/DX5) cell lines with equal efficiency. The parental uterine sarcoma cells and the MDR positive (MES-SA/DX5) cells were plated into 6 well dishes and treated with various concentrations of 6aa and Paclitaxel for 96 h. The number of viable cells from duplicate plates was determined by trypan blue exclusion. B. Soft Agar Assays. MIA-PaCa-2 cells (1.0×10^5) were plated in soft agar containing various concentrations of each compound in triplicates. After three weeks of growth, the plates were stained for 48 h using 0.05% nitroblue tetrazolium solution. Representative plates were photographed using an Olympus stereoscope mounted with a Sony digital camera system (DKC5000, Sony Inc).
The soft agar plates were prepared as described by Cosenza, et al (Cosenza, S. C. et al. In Cell Growth, Differentiation and Senescence, Studzinski, G. P., Ed.; Oxford University Press: 1999, 161-176.). Briefly, Noble bottom agar (0.8%) was plated onto 60 mm tissue culture plates. Exponentially growing MIA-PaCa-2 cells (1.0×10^5) were mixed with growth medium with various concentrations of each compound and mixed with Noble agar to a final concentration of 0.4%. Each concentration was plated in triplicate. The top agar was allowed to solidify and the plates were then incubated at 5% CO2 at 37° C. for 3 weeks. The plates were then stained with 0.05% nitroblue tetrazolium (NBT) solution and representative plates were photographed using an Olympus stereoscope mounted with a Sony digital camera system (DKC5000, Sony Inc).

A further data set relates to HCT-116. Kind of data set: Tumor cell killing, HCT-116. It counts as cell-based, human. The note with it: HCT-116, COLO-RECTAL; read-out: Tumor cell killing (IC50) concentration. Here is the method:
Tissue Culture and Reagents: Paclitaxel was purchased from Sigma. Cell lines were purchased from ATCC. Cell lines were routinely grown in DMEM or RPM1 (CellGro) supplemented with 10% fetal bovine serum (Atlas) and 1 unit/mL penicillin-streptomycin (Gibco).
A number of tumor cell lines were tested using a dose response end point assay system. The cells were grown in either DMEM or RPMI supplemented with 10% fetal bovine serum and 1 unit/mL Penicillin-Streptomycin solution. The tumor cells were plated into 6 well dishes at a cell density of 1.0×10^5 cells/mL/well and compounds were added 24 h later at various concentrations. Cell counts were determined from duplicate wells after 96 h of treatment. The total number of viable cells was determined by trypan blue exclusion.

Turning to `COc1cc(OC)c(/C=C/S(=O)(=O)Cc2ccc(OC)c(O)c2)c(OC)c1` [6aa, (E)-2,4,6-Trimethoxystyryl-3-Hydroxy-4-Methoxybenzyl Sulfone], in the data set on DU145, the “apoptosis as judged by PARP cleavage” value is reported as “activation of apoptotic pathways”. For the same compound, the “in vitro hematopoietic colony formation of bone marrow cells” value with bone marrow cells was “no reduction in total, myeloid or lymphoid colony formation”. The “effect on cell cycle progression” value in data set [1] was “gradually accumulated in the G2/M phase”. Further, the “growth of tumor cells in soft agar” value with MIA-PaCa-2 cells is reported as “complete inhibition of the growth of tumor cells”. Moreover, in the data set on HCT-116, the IC50 came out at 9 nM.
